“Also recorded” adds a separate entry of the source.
System: U-937 blood cancer cell line
Test: MTT in vitro cytotoxicity assay
Format: cell-based
Conditions: U-937, MTT assay
Experimental: For cytotoxicity assays, the anti-cancer compounds were prepared as a stock solution, to suit a universal 96 well plate map, at different concentrations in μM, and dissolved in DMSO dH2O. Working solutions were prepared in the culture medium and added to the wells 24 hours after seeding of 5 to 7×10^3 cells per well in 200 μL of fresh culture medium. DMSO (1%)/dH2O was used as the solvent control. The DMSO concentration was maintained at a concentration less than 1% (i.e., a non-toxic concentration). Microscopic cytological changes were monitored and photographed following exposure to different concentrations of the compounds for 24 and 48 hours using an inverted microscope. After the respective periods of treatment, plates were centrifuged and washed with fresh growth medium. Then, 20 μL of MTT solution [5 mg/mL in phosphate-buffered saline (PBS)] was added to each well, and the plates were wrapped with aluminum foil and incubated overnight at 37° C. The plates were centrifuged and the supernatants were removed carefully […]. The purple formazan product was dissolved in 100 μL of 100% DMSO. The absorbance was monitored at 570 nm (measurement) and 630 nm (reference) using a 96 well plate reader. Data were collected for four replicates each and used to calculate the median effect dose or concentration; i.e., IC50. […]

With “5′-benzyl-4′-(p-tolyl)-5-(trifluoromethoxy)spiro[3,2′]oxindolopyrrolidino-4′-(methylphenyl)-1″-styryl-5-benzylidene-spiro[3′.3″]piperidi-4″-one [Compound 4i]” the “cytotoxicity (in words)” value (24 and 48 hours) was “most cytotoxic compound; also recorded: excellent cytotoxicity effects at the lowest concentrations”.

bleomycin [reference compound] showed an IC50 (24 hour incubation time, read-out: IC50 = concentration of drug required to inhibit growth of 50% of the cancer cells) of 16.2 ± 4.5 µM.
